Measured values reported in patent US6348468B1, “Pyridazine compounds and compositions containing the same” (Kowa Co., Ltd., priority 1997, dated 2002).

First: CSc1ccc(-c2n[nH]c(=O)cc2-c2ccc(F)cc2)cc1 [Example 9, 5-(4-fluorophenyl)-6-[4-(methylthio)phenyl]-2H-pyridazin-3-one]
Second: CSc1ccc(-c2n[nH]c(=S)cc2-c2ccc(F)cc2)cc1 [Example 136, 5-(4-fluorophenyl)-6-[4-(methylthio)phenyl]-2H-pyridazine-3-thione]
The melting point of the first is lower: 197.4 to 198.2 °C for the first, 218.7 to 218.9 °C for the second.

Compared with `COc1ccc(-c2cc(=O)n(CCCOc3ccccc3)nc2-c2ccc(OC)cc2)cc1` [Example 20, 5,6-bis(4-methoxyphenyl)-2-[3-(phenoxy)propyl]-2H-pyridazin-3-one], `COc1ccc(-c2cc(=O)n(CCC(=O)NCc3ccccc3)nc2-c2ccc(OC)cc2)cc1` [Example 115, 5,6-bis(4-methoxyphenyl)-2-[2-(benzylaminocarbonyl)ethyl]-2H-pyridazin-3-one] is higher in melting point: 110 to 111 °C for the first, 135 to 137 °C for the second.

Compared with `COc1ccc(-c2cc(=O)n(Cc3ccc(Cl)cc3)nc2-c2ccc(OC)cc2)cc1` [Example 33, 5,6-bis(4-methoxyphenyl)-2-(4-chlorobenzyl)-2H-pyridazin-3-one], `COc1ccc(-c2cc(=O)n(Cc3ccc(C(=O)O)cc3)nc2-c2ccc(OC)cc2)cc1` [Example 112, 5,6-bis(4-methoxyphenyl)-2-(4-carboxybenzyl)-2H-pyridazin-3-one] is higher in melting point: 124.2 to 127.3 °C for the first, 241 to 242 °C for the second.

Compared with `COC(=O)c1ccc(Cn2nc(-c3ccc(OC)cc3)c(-c3ccc(OC)cc3)cc2=O)cc1` [Example 42, 5,6-bis(4-methoxyphenyl)-2-(4-methoxycarbonylbenzyl)-2H-pyridazin-3-one], `COc1ccc(-c2cc(=O)n(Cc3ccncc3)nc2-c2ccc(OC)cc2)cc1` [Example 45, 5,6-bis(4-methoxyphenyl)-2-(4-pyridylmethyl)-2H-pyridazin-3-one] is lower in melting point: 185.5 to 186.6 °C for the first, 182.1 to 183.1 °C for the second.

First: COc1ccc(-c2cc(=O)n(Cc3ccccn3)nc2-c2ccc(OC)cc2)cc1 [Example 43, 5,6-bis(4-methoxyphenyl)-2-(2-pyridylmethyl)-2H-pyridazin-3-one]
Second: COc1ccc(-c2nn(Cc3ccccc3)c(=O)cc2-c2ccc(Cl)cc2)cc1 [Example 49, 5-(4-chlorophenyl)-6-(4-methoxyphenyl)-2-benzyl-2H-pyridazin-3-one]
The melting point of the first is lower: 116 to 117 °C for the first, 165 to 167 °C for the second.

First: COc1ccc(-c2nn(Cc3ccncc3)c(=O)cc2-c2ccc(Cl)cc2)cc1 [Example 50, 5-(4-chlorophenyl)-6-(4-methoxyphenyl)-2-(4-pyridylmethyl)-2H-pyridazin-3-one]
Second: CS(=O)(=O)c1ccc(-c2nn(Cc3ccncc3)c(=O)cc2-c2ccc(F)cc2)cc1 [Example 107, 5-(4-fluorophenyl)-6-[4-(methylsulfonyl)phenyl]-2-(4-pyridylmethyl)-2H-pyridazin-3-one]
The melting point of the first is lower: 142 to 143 °C for the first, 253.3 to 254.5 °C for the second.

First: CSc1ccc(-c2nn(Cc3ccc(F)cc3F)c(=O)cc2-c2ccc(Cl)cc2)cc1 [Example 53, 5-(4-chlorophenyl)-6-[4-(methylthio)phenyl]-2-(2,4-difluorobenzyl)-2H-pyridazin-3-one]
Second: CSc1ccc(-c2nn(Cc3ccc(F)cc3F)c(=S)cc2-c2ccc(Cl)cc2)cc1 [Example 133, 5-(4-chlorophenyl)-2-(2,4-difluorobenzyl)-6-[4-(methylthio)phenyl]-2H-pyridazine-3-thione]
The melting point of the first is lower: 157.4 to 157.5 °C for the first, 176.5 to 176.6 °C for the second.

First: CSc1ccc(-c2nn(Cc3ccc(Cl)cc3Cl)c(=O)cc2-c2ccc(Cl)cc2)cc1 [Example 54, 5-(4-chlorophenyl)-6-[4-(methylthio)phenyl]-2-(2,4-dichlorobenzyl)-2H-pyridazin-3-one]
Second: C[S+]([O-])c1ccc(-c2nn(Cc3ccc(Cl)cc3Cl)c(=O)cc2-c2ccc(Cl)cc2)cc1 (stereo not drawn) [Example 92, 5-(4-chlorophenyl)-2-(2,4-dichlorobenzyl)-6-[4-(methylsulfinyl)phenyl]-2H-pyridazin-3-one]
The melting point of the first is lower: 154.5 to 155 °C for the first, 236.5 to 237.3 °C for the second.

Compared with `CSc1ccc(-c2nn(CC=Cc3ccccc3)c(=O)cc2-c2ccc(Cl)cc2)cc1` [Example 56, 5-(4-chlorophenyl)-6-[4-(methylthio)phenyl]-2-cinnamyl-2H-pyridazin-3-one], `C[S+]([O-])c1ccc(-c2nn(Cc3ccccc3)c(=O)cc2-c2ccc(Cl)cc2)cc1` (stereo not drawn) [Example 85, 2-benzyl-5-(4-chlorophenyl)-6-[4-(methylsulfinyl)phenyl]-2H-pyridazin-3-one] is higher in melting point: 109.3 to 110.2 °C for the first, 143.7 to 144.7 °C for the second.

First: COc1ccc(Cn2nc(-c3ccc(SC)cc3)c(-c3ccc(F)cc3)cc2=O)cc1 [Example 62, 5-(4-fluorophenyl)-6-[4-(methylthio)phenyl]-2-(4-methoxybenzyl)-2H-pyridazin-3-one]
Second: COc1ccc(Cn2nc(-c3ccc(SC)cc3)c(-c3ccc(F)cc3)cc2=S)cc1 [Example 140, 5-(4-fluorophenyl)-2-(4-methoxybenzyl)-6-(4-(methylthio)phenyl]-2H-pyridazine-3-thione]
The melting point of the first is higher: 165.3 to 165.7 °C for the first, 112.7 to 112.9 °C for the second.

Compared with `CSc1ccc(Cn2nc(-c3ccc(SC)cc3)c(-c3ccc(F)cc3)cc2=O)cc1` [Example 63, 5-(4-fluorophenyl)-6-[4-(methylthio)phenyl]-2-[4-(methylthio)benzyl]-2H-pyridazin-3-one], `CSc1ccc(-c2nn(Cc3cccnc3)c(=O)cc2-c2ccc(F)cc2)cc1` [Example 67, 5-(4-fluorophenyl)-6-[4-(methylthio)phenyl]-2-(3-pyridylmethyl)-2H-pyridazin-3-one] is higher in melting point: 116 to 116.1 °C for the first, 159.8 to 160.7 °C for the second.

First: CSc1ccc(-c2nn(Cc3ccccc3)c(=O)cc2-c2ccccc2)cc1 [Example 71, 2-benzyl-6-[4-(methylthio)phenyl]-5-phenyl-2H-pyridazin-3-one]
Second: CS(=O)(=O)c1ccc(-c2nn(Cc3ccccc3)c(=O)cc2-c2ccccc2)cc1 [Example 109, 2-benzyl-6-[4-(methylsulfonyl)phenyl]-5-phenyl-2H-pyridazin-3-one]
The melting point of the first is lower: 157.3 to 158.4 °C for the first, 211 to 212 °C for the second.

Compared with `C[S+]([O-])c1ccc(-c2nn(CC3CC3)c(=O)cc2-c2ccc(Cl)cc2)cc1` (stereo not drawn) [Example 86, 5-(4-chlorophenyl)-2-cyclopropylmethyl-6-[4-(methylsulfinyl)phenyl]-2H-pyridazin-3-one], `C[S+]([O-])c1ccc(-c2nn(CC3CC3)c(=O)cc2-c2ccc(F)cc2)cc1` (stereo not drawn) [Example 87, 2-cyclopropylmethyl-5-(4-fluorophenyl)-6-[4-(methylsulfinyl)phenyl]-2H-pyridazin-3-one] is lower in melting point: 152.2 to 152.3 °C for the first, 133.3 to 133.5 °C for the second.

First: COc1ccc(Cn2nc(-c3ccc([S+](C)[O-])cc3)c(-c3ccc(F)cc3)cc2=O)cc1 (stereo not drawn) [Example 89, 5-(4-fluorophenyl)-2-(4-methoxybenzyl)-6-[4-(methylsulfinyl)phenyl]-2H-pyridazin-3-one]
Second: C[S+]([O-])c1ccc(-c2nn(Cc3ccc(F)cc3F)c(=O)cc2-c2ccc(Cl)cc2)cc1 (stereo not drawn) [Example 91, 2-(2,4-difluorobenzyl)-5-(4-chlorophenyl)-6-[4-(methylsulfinyl)phenyl]-2H-pyridazin-3-one]
The melting point of the first is lower: 81.3 to 81.5 °C for the first, 155.6 to 155.7 °C for the second.

First: CS(=O)(=O)c1ccc(-c2nn(Cc3ccccc3)c(=O)cc2-c2ccc(Cl)cc2)cc1 [Example 97, 2-benzyl-5-(4-chlorophenyl)-6-[4-(methylsulfonyl)phenyl]-2H-pyridazin-3-one]
Second: CS(=O)(=O)c1ccc(-c2nn(CCCc3ccccc3)c(=O)cc2-c2ccc(Cl)cc2)cc1 [Example 108, 5-(4-chlorophenyl)-6-[4-(methylsulfonyl)phenyl]-2-(3-phenylpropyl)-2H-pyridazin-3-one]
The melting point of the first is higher: 103.2 to 105.7 °C for the first, 70.2 to 71.6 °C for the second.

First: CS(=O)(=O)c1ccc(-c2n[nH]c(=O)cc2-c2ccc(Cl)cc2)cc1 [Example 98, 5-(4-chlorophenyl)-6-[4-(methylsulfonyl)phenyl]-2H-pyridazin-3-one]
Second: CS(=O)(=O)c1ccc(-c2nn(CC3CC3)c(=O)cc2-c2ccc(Cl)cc2)cc1 [Example 99, 5-(4-chlorophenyl)-2-cyclopropylmethyl-6-[4-(methylsulfonyl)phenyl]-2H-pyridazin-3-one]
The melting point of the first is higher: 254 to 254.7 °C for the first, 139.7 to 139.8 °C for the second.

First: CS(=O)(=O)c1ccc(-c2nn(CC3CC3)c(=O)cc2-c2ccc(F)cc2)cc1 [Example 100, 2-cyclopropylmethyl-5-(4-fluorophenyl)-6-[4-(methylsulfonyl)phenyl]-2H-pyridazin-3-one]
Second: CS(=O)(=O)c1ccc(-c2nn(Cc3ccc(F)cc3F)c(=O)cc2-c2ccc(Cl)cc2)cc1 [Example 103, 2-(2,4-difluorobenzyl)-5-(4-chlorophenyl)-6-[4-(methylsulfonyl)phenyl]-2H-pyridazin-3-one]
The melting point of the first is lower: 123.8 to 123.9 °C for the first, 173.8 to 173.9 °C for the second.

First: CS(=O)(=O)c1ccc(-c2nn(Cc3ccc(Cl)cc3Cl)c(=O)cc2-c2ccc(Cl)cc2)cc1 [Example 104, 5-(4-chlorophenyl)-2-(2,4-dichlorobenzyl)-6-[4-(methylsulfonyl)phenyl]-2H-pyridazin-3-one]
Second: CS(=O)(=O)c1ccc(-c2nn(Cc3cccnc3)c(=O)cc2-c2ccc(Cl)cc2)cc1 [Example 106, 5-(4-chlorophenyl)-6-[4-(methylsulfonyl)phenyl]-2-(3-pyridylmethyl)-2H-pyridazin-3-one]
The melting point of the first is lower: 232.7 to 234.5 °C for the first, 248 to 248.1 °C for the second.

Compared with `CSc1ccc(C2=NN(Cc3ccccc3)C(=O)CC2c2ccc(Cl)cc2)cc1` (stereo not drawn) [Example 121, 2-benzyl-5-(4-chlorophenyl)-4,5-dihydro-6-[4-(methylthio)phenyl]-2H-pyridazin-3-one], `CSc1ccc(-c2nn(Cc3ccccc3)c(=S)cc2-c2ccc(F)cc2)cc1` [Example 138, 2-benzyl-5-(4-fluorophenyl)-6-[4-(methylthio)phenyl]-2H-pyridazine-3-thione] is lower in melting point: 113.5 to 113.9 °C for the first, 108.1 to 108.2 °C for the second.

Work on `CS(=O)(=O)c1ccc(-c2nn(Cc3ccccc3)c(=S)cc2-c2ccc(F)cc2)cc1` [Example 139, 2-benzyl-5-(4-fluorophenyl)-6-[4-(methylsulfonyl)phenyl]-2H-pyridazine-3-thione] yielded a melting point of 181.8 to 182 °C.
